Laboratory results reported in the supplement of paper PMC7394473.

Columns and labels:
Conditions in all cases: 72 h
U2OS [1] = assay: fractional viability (live cells / total cells); higher = less cell death
Procedure: (§1)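 U2OS::Nuc-mKate2 cells seeded in 96-well plates and treated with eight- to ten-point half-log or log dilutions of drug in the presence of 50 nM SYTOX Green. Live (mKate2+) and dead (SYTOX+) cells were counted by IncuCyte STACK live-cell microscopy at 72 h; biological triplicates. GR is the normalised growth-rate inhibition value (Hafner 2016; 1 = untreated growth, <0 = population shrinking). FV is live/(live+dead) cells, not normalised.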

U2OS [2] = assay: normalized growth rate inhibition value (GR) relative to untreated cells (GR value (dimensionless, 1 = untreated growth)); higher = less growth inhibition
Procedure: as §1

U2OS [3] = assay: GRmin (fitted minimal GR value at highest effect) (GR value (dimensionless)); higher = less efficacious
Procedure: (§2)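 U2OS cells treated with full dose titrations of drug; live and dead cells counted by STACK microscopy (mKate2 nuclei, SYTOX Green) at 72 h, biological triplicates. GR and FV dose responses were fitted with 4-parameter logistic models (GR lower bound -1). GRADE (0-100) is the rescaled angle of a linear fit of FV versus GR at doses with GR >= 0, giving the percentage of the response due to cell death.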

U2OS [4] = assay: GR50 (concentration giving GR = 0.5)
Procedure: as §2

U2OS [5] = assay: drug GRADE (percent of response due to cell death) (% (0-100)); higher = more death-driven response
Procedure: as §2

Structure (SMILES)	fractional viability (U2OS [1]; 0.00100578 µM)	fractional viability (U2OS [1]; 0.00317827 µM)	fractional viability (U2OS [1]; 0.0100433 µM)	fractional viability (U2OS [1]; 0.0317369 µM)	fractional viability (U2OS [1]; 0.100289 µM)	fractional viability (U2OS [1]; 0.316912 µM)	fractional viability (U2OS [1]; 1.00144 µM)	fractional viability (U2OS [1]; 3.16456 µM)	fractional viability (U2OS [1]; 10 µM)	normalized growth rate inhibition value (U2OS [2]; 0.00100578 µM)	normalized growth rate inhibition value (U2OS [2]; 0.00317827 µM)	normalized growth rate inhibition value (U2OS [2]; 0.0100433 µM)	normalized growth rate inhibition value (U2OS [2]; 0.0317369 µM)	normalized growth rate inhibition value (U2OS [2]; 0.100289 µM)	normalized growth rate inhibition value (U2OS [2]; 0.316912 µM)	normalized growth rate inhibition value (U2OS [2]; 1.00144 µM)	normalized growth rate inhibition value (U2OS [2]; 3.16456 µM)	normalized growth rate inhibition value (U2OS [2]; 10 µM)	fractional viability (U2OS [1]; 0.01 µM)	fractional viability (U2OS [1]; 0.0316 µM)	fractional viability (U2OS [1]; 0.1 µM)	fractional viability (U2OS [1]; 0.316 µM)	fractional viability (U2OS [1]; 1 µM)	fractional viability (U2OS [1]; 3.16 µM)	fractional viability (U2OS [1]; 31.6 µM)	GRmin (U2OS [3])	normalized growth rate inhibition value (U2OS [2]; 0.01 µM)	normalized growth rate inhibition value (U2OS [2]; 0.0316 µM)	normalized growth rate inhibition value (U2OS [2]; 0.1 µM)	normalized growth rate inhibition value (U2OS [2]; 0.316 µM)	normalized growth rate inhibition value (U2OS [2]; 1 µM)	normalized growth rate inhibition value (U2OS [2]; 3.16 µM)	normalized growth rate inhibition value (U2OS [2]; 31.6 µM)	GR50 (U2OS [4]) [µM]	drug GRADE (U2OS [5])
CCc1cncnc1N1CCN(Cc2nc3ccc(C(F)(F)F)cc3[nH]2)CC1	0.988	0.988	0.988	0.988	0.988	0.986	0.992	0.989	0.98	1.06	0.948	1.04	1.02	0.896	1	0.842	0.943	0.734	–	–	–	–	–	–	–	–	–	–	–	–	–	–	–	–	–
Cc1nn(C)c(COc2ccc(N3CCN(S(=O)(=O)N(C)C)CC3)cc2)c1-c1cccc2c(CCCOc3cccc4ccccc34)c(C(=O)O)n(CCN3CCOCC3)c12	0.991	0.989	0.987	0.991	0.99	0.987	0.978	0.96	0.852	0.982	0.925	0.967	0.917	0.934	0.942	0.899	0.919	0.718	–	–	–	–	–	–	–	–	–	–	–	–	–	–	–	–	–
COC1CCN(C(=O)c2cc(Cc3n[nH]c(=O)c4ccccc34)ccc2F)CC1 [AZD2461]	–	–	–	–	–	–	–	–	0.959	–	–	–	–	–	–	–	–	0.682	0.974	0.973	0.978	0.975	0.972	0.97	0.919	0.0439	1.01	0.882	0.946	0.923	0.93	0.849	0.407	21.7	13.6
Cc1nc(NC(=O)N2CCC[C@H]2C(N)=O)sc1-c1ccnc(C(C)(C)C(F)(F)F)c1 [Alpelisib]	0.986	0.987	0.987	0.985	0.982	0.98	0.971	0.965	0.938	0.96	0.922	0.922	0.903	0.836	0.752	0.794	0.79	0.693	–	–	–	–	–	–	–	0.695	–	–	–	–	–	–	–	–	9
C[C@H]1[C@H](OC(=O)CCC(=O)O)O[C@@H]2O[C@@]3(C)CC[C@H]4[C@H](C)CC[C@@H]1[C@@]24OO3 [Artesunate]	–	–	–	–	–	–	–	–	0.941	–	–	–	–	–	–	–	–	0.63	0.98	0.974	0.976	0.972	0.977	0.971	0.779	–	1.02	0.827	0.944	0.928	0.89	0.814	0.178	14.7	35.4
CNC(=O)c1ccccc1Sc1ccc2c(/C=C/c3ccccn3)n[nH]c2c1 [Axitinib]	–	–	–	–	–	–	–	–	0.949	–	–	–	–	–	–	–	–	0.733	0.977	0.978	0.97	0.972	0.956	0.788	0.91	0.534	0.956	0.956	0.887	0.994	0.822	0.223	0.643	–	32.1
Cc1c(N)nc([C@H](CC(N)=O)NC[C@H](N)C(N)=O)nc1C(=O)N[C@H](C(=O)N[C@H](C)[C@@H](O)[C@H](C)C(=O)N[C@H](C(=O)NCCc1nc(-c2nc(C(=O)NCCC[S+](C)C)cs2)cs1)[C@@H](C)O)[C@@H](OC1OC(CO)C(O)C(O)C1OC1OC(CO)C(O)C(OC(N)=O)C1O)c1cnc[nH]1 (some centres not stated) [Bleomycin]	0.989	0.989	0.99	0.991	0.987	0.982	0.972	0.968	0.947	1.12	0.986	1.11	1.03	0.88	0.888	0.552	0.195	0.0892	–	–	–	–	–	–	–	0.0459	–	–	–	–	–	–	–	1.15	6.06
